For 14 molecules, IC50 results are on record in US9776972B2, “Pyrazole derivatives as arginine methyltransferase inhibitors and uses thereof” (priority 2013, dated 2017).

Usually IC50 stands for the concentration at which inhibition is half-maximal. Lower therefore signals greater potency.

Chain of human PRMT3 (O60678 with tags, fused parts or gaps): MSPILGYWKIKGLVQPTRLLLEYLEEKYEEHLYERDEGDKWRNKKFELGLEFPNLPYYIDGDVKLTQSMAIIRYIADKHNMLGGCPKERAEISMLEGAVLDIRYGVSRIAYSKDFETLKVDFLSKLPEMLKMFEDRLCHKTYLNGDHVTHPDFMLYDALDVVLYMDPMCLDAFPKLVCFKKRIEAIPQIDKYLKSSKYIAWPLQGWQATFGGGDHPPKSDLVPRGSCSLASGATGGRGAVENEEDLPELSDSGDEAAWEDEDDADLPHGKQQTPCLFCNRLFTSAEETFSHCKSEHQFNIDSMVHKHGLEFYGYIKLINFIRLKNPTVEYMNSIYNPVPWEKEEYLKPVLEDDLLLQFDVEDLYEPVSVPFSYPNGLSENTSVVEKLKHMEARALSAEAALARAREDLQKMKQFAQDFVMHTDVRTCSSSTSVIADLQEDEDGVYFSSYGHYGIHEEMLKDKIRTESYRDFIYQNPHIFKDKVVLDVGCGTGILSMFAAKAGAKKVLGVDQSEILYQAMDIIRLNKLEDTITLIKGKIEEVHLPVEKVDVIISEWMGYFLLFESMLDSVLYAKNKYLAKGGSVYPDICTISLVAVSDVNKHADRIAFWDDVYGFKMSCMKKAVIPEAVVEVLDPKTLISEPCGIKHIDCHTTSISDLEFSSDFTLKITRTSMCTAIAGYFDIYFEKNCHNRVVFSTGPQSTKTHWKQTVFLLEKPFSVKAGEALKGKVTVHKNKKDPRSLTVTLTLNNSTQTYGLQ

This experiment concerns the target human PRMT3 (Homo sapiens, UniProt O60678). The experiment is described as follows: PRMT3 Biochemical Assay (3H-SAM Flashplate, peptide substrate). Particulars: single experiment or average of multiple experiments.
As to `CCN(CCN)Cc1c[nH]nc1-c1ccc(F)cc1` [Compound 62], it took 4.13 µM to reach half-maximal inhibition (IC50). Molecule `CN(CCN)Cc1c[nH]nc1-c1ccc(C#N)cc1` [Compound 68] gave an IC50 of 4.36 µM. `CCCc1ccc(-c2n[nH]cc2CN(C)CCNC)cc1` [Compound 20] returned a half-maximal inhibitory concentration (IC50) of 3.54 µM. For `CNCCN(C)Cc1c[nH]nc1-c1cccc([N+](=O)[O-])c1` [Compound 21], the IC50 was found to be 2.3 µM. Against the preceding molecule, the IC50 is about 1.5-fold lower. Molecule `CNCCN(C)Cc1c[nH]nc1-c1ccc(F)cc1F` [Compound 49] had a half-maximal inhibitory concentration (IC50) of 4.43 µM. Take `CNCCN(C)Cc1c[nH]nc1-c1ccc(N)cc1` [Compound 33]: half-maximal inhibition (IC50) required 1.89 µM. `CNCCN(C)Cc1c[nH]nc1-c1ccc(Oc2ccccc2)cc1` [Compound 37]: the IC50 came to 0.25 µM. Regarding `CNCCN(C)Cc1c[nH]nc1-c1ccc2ccccc2c1` [Compound 58], the concentration for half-maximal inhibition (IC50) came out at 3.16 µM.

Turning to `CNCCN(C)Cc1c[nH]nc1-c1ccc(F)c(F)c1` [Compound 51], the 50% inhibitory concentration (IC50) was determined as 5.01 µM. In the case of `CNCCN(C)Cc1c[nH]nc1-c1cccc2ccccc12` [Compound 57] it was 3.35 µM. Consider `CNCCN(C)Cc1c[nH]nc1-c1ccc(OC)c(F)c1` [Compound 52], for which the IC50 came out at 5.25 µM. The result for `CNCCN(C)Cc1c[nH]nc1-c1ccc(F)cc1` [Compound 2, N^1-((3-(4-fluorophenyl)-1H-pyrazol-4-yl)methyl)-N^1,N^2-dimethylethane-1,2-diamine] reads 4.48 µM. Regarding `CNCCN(C)Cc1c[nH]nc1-c1ccc(C(=O)c2ccccc2)cc1` [Compound 45], half-maximal inhibition (IC50) required 5.53 µM. Turning to `CNCCN(C)Cc1c[nH]nc1-c1ccc(CO)cc1` [Compound 28], 0.202 µM corresponded to half-maximal inhibition (IC50).
